Data as given in patent publication US20240016781A1, “TREATMENT OF KRAS MUTANT CANCERS” (MEI Pharma, Inc., priority 2020, published 2024).
Like-named read-outs stand apart in the source and are kept apart here.

How the values were obtained:
Test in all cases: 72-hour CellTiter-Glo 2.0 growth inhibition screen (single agent, 9x9 combination dose matrix)
Assay type in all cases: cell-based
[1] = tested on: AsPC-1; conditions: AsPC-1, Pancreas, 72 h
[2] = tested on: Gp2D; conditions: Gp2D, Colorectal, 72 h
[3] = tested on: NCI-H358; conditions: NCl-H358, Lung, 72 h
[4] = tested on: SW48 KRAS (G12C/+); conditions: SW48 KRAS (G12C/+), Colorectal, 72 h; for EC50: read-out: EC50
[5] = tested on: SW837; conditions: SW837, Colorectal, 72 h
[6] = Additional Single Agent Responses (inhibition, % I)
[7] = Additional Single Agent Responses
[8] = growth inhibition (GI) curve, single agent
[9] = growth inhibition (GI), AUC, single agent
[10] = growth inhibition (GI), single agent

For CN1CC[C@@H](c2c(O)cc(O)c3c(=O)cc(-c4ccc(C(F)(F)F)cc4Cl)oc23)[C@@H]1CO [MEI-522(Voruciclib)], the EC50 [1, 6] was 1330 nM, the IC50 [1, 6] was 2320 nM and the “Response Area” value [1, 6] was 1.96. For the same compound, the “Max Response (% I)” value [1, 7] was 68 % I, the EC50 [1, 8] was 1350 nM and the GI50 [1, 8] was 1340 nM. For the same compound, the “Response Area” value [1, 9] was 2.86, the “Max Response (% GI)” value [1, 10] was 99 % GI and the EC50 [2, 6] was 747 nM. For the same compound, the IC50 [2, 6] was 791 nM, the “Response Area” value [2, 6] was 2.94 and the “Max Response (% I)” value [2, 7] was 94 % I. The EC50 [2, 8] was 1170 nM, the GI50 [2, 8] was 695 nM and the “Response Area” value [2, 9] was 5.14. The “Max Response (% GI)” value [2, 10] was 176 % GI, the EC50 [3, 6] was 591 nM and the IC50 [3, 6] was 628 nM. The “Response Area” value [3, 6] was 2.50, the “Max Response (% I)” value [3, 7] was 85 % I and the EC50 [3, 8] was 598 nM. For the same compound, the GI50 [3, 8] was 585 nM, the “Response Area” value [3, 9] was 3.61 and the “Max Response (% GI)” value [3, 10] was 137 % GI. The IC50 [4, 6] was 731 nM, the “Response Area” value [4, 6] was 2.74 and the EC50 [4, 6] was 591 nM. For the same compound, the “Max Response (% I)” value [4, 7] was 85 % I, the GI50 [4, 8] was 586 nM and the EC50 [4, 8] was 719 nM. The “Response Area” value [4, 9] was 3.67, the “Max Response (% GI)” value [4, 10] was 115 % GI and the EC50 [5, 6] was 1990 nM. For the same compound, the IC50 [5, 6] was 2090 nM, the “Response Area” value [5, 6] was 2.44 and the “Max Response (% I)” value [5, 7] was 90 % I. For the same compound, the EC50 [5, 8] was 2100 nM, the GI50 [5, 8] was 1750 nM and the “Response Area” value [5, 9] was 4.48. The “Max Response (% GI)” value [5, 10] was 166 % GI.
